ChEMBL document CHEMBL1129024, “Design, synthesis, and antitumor activity of bicyclic and isomeric analogues of illudin M” (Bioorg Med Chem Lett, 1996)

Tests used:
Type in all cases: functional, cell-based
[1] = system: A-375; experiment: In vitro antitumor activity against A375 (melanoma) human tumor cell lines.
[2] = system: A549; experiment: In vitro antitumor activity against A549 (lung) human tumor cell lines.
[3] = system: MDA-MB-231; experiment: In vitro antitumor activity against MB231 (breast) human tumor cell lines.
[4] = system: SW480; experiment: In vitro antitumor activity against SW480 (colon) human tumor cell lines.

IC50 [1] | IC50 [2] | IC50 [3] | IC50 [4] | Structure (SMILES)
> 10000 nM | > 10000 nM | > 10000 nM | > 10000 nM | CC1=C/C(=C\c2cccs2)C(=O)C(C)(O)C12CC2 (stereo not given)
2000 nM | 3000 nM | 2000 nM | 4000 nM | CC1=C/C(=C\C#CCCO)C(=O)C(C)(O)C12CC2 (stereo not given)
> 10000 nM | 1500 nM | 4000 nM | 2500 nM | CC1=C/C(=C\c2ccccc2)C(=O)C(C)(O)C12CC2 (stereo not given)
70 nM | 120 nM | 150 nM | 60 nM | COc1cccc2c1C(=O)c1c(O)c3c(c(O)c1C2=O)C[C@@](O)(C(=O)CO)C[C@@H]3O[C@H]1C[C@H](N)[C@H](O)[C@H](C)O1 [DOXORUBICIN]

More lines, now with the values behind:

Structure (SMILES) | IC50 [1] | IC50 [2] | IC50 [3] | IC50 [4]
C=C/C=C1\C=C(C)C2(CC2)C(C)(O)C1=O (stereo not given) | 18 nM | 2 nM | 28 nM | 180 nM
CC1=C/C(=C\Cl)C(=O)C(C)(O)C12CC2 (stereo not given) | 1000 nM | 200 nM | 300 nM | 30 nM
C/C=C1\C=C(C)C2(CC2)C(C)(O)C1=O (stereo not given) | 4 nM | 150 nM | 110 nM | 120 nM
CC1=C/C(=C\C(C)C)C(=O)C(C)(O)C12CC2 (stereo not given) | 130 nM | 110 nM | 300 nM | 30 nM
C=C1C2=C(CC(C)(C)C2=O)C(=O)C(C)(O)C12CC2 (stereo not given) | 32 nM | 250 nM | 2000 nM | 60 nM
CC1=C2C(=O)C(C)(C)C=C2C(=O)[C@](C)(O)C12CC2 [DEHYDROILLUDIN M] | 550 nM | 200 nM | 450 nM | 300 nM
